How the values were obtained:
Type in all cases: in vivo, human
[1] = test system: Subjects Having Insomnia Disorder; test: Example 2: total sleep time (TST), polysomnography
Protocol: In some embodiments, a sleep parameter is determined objectively using polysomnography. Polysomnography is the monitoring of multiple electrophysiological parameters during sleep and generally includes measurement of EEG activity, electro-oculographic activity and electromyographic activity, as well as other measurements.
TST—total sleep time: minutes of sleep from sleep onset until terminal awakening.
The treatment period lasted for 31 days. Subjects were randomized in a double-blind manner and received placebo, a tablet containing 5 mg of lemborexant, a tablet containing 10 mg of lemborexant, or a tablet containing 6.25 mg of zolpidem ER.
Within 5 minutes of the subject's mean habitual bedtime, study drug was administered and an overnight polysomnogram recording was initiated. At completion of the recording the following morning (Day 2), postural stability and cognitive performance were assessed. On the Day 2 evening, subjects returned to the clinic and a blood sample was collected before administering study drug, and then study drug was administered within 5 minutes of the subject's mean habitual bedtime. Again, a polysomnogram recording was initiated. The next morning (Day 3), postural stability and cognitive performance were assessed. A blood sample was also collected.
On Day 29, subjects returned to the clinic. Study drug was administered within 5 minutes of the subject's mean habitual bedtime and a polysomnogram recording was conducted. On the following morning (Day 30), postural stability and cognitive performance were assessed. After 1.5 hours of waketime, subjects rated their morning sleepiness level.
On the evening of Day 30, subjects returned to the clinic. A pre-dose blood sample was collected and study drug was again administered within 5 minutes of the subject's mean habitual bedtime. A polysomnogram recording was initiated. The following morning (Day 31), postural stability and cognitive performance were assessed and a blood sample was obtained. The ISI, FSS, EQ-5D-3L and PGI-Insomnia were administered. Blood and urine samples were collected for routine safety assessment. An electrocardiogram was performed, and vital signs and weight were assessed. The eC-SSRS was then administered to the subject. At 1.5 hours after waketime, subjects rated their morning sleepiness level.

[2] = test system: Subjects Having Insomnia Disorder; test: Example 2: treatment-emergent adverse events
Protocol: Between 14 and 18 days after completion of the treatment period, subjects returned to the clinic for the end of study visit. The T-BWSQ and eC-SSRS were administered and routine safety assessments were conducted.
A subject who prematurely discontinued taking study drug was to return to the clinic as soon as practicable after discontinuing study drug. If the subject discontinued due to an adverse event, the adverse event must have been followed to resolution or for 2 weeks, whichever came first. Additionally, subjects who discontinued early underwent a urine drug test.

[3] = test system: Subjects Having Insomnia Disorder; test: Example 2: Cognitive Performance Assessment Battery; conditions: either dose, at either time point (FIGS. 11A-11D)
Protocol: FIG. 11A-FIG. 11D show the change from baseline (least squares mean) in the four domains of the Cognitive Performance Assessment Battery at Days 2/3 and Days 30/31 in patients treated with placebo, 6.25 mg of zolpidem, 5 mg of lemborexant, or 10 mg of lemborexant.
Subjects were provided with a sleep diary and trained on how to record entries. After subjects completed the sleep diary on 7 consecutive mornings, and provided that the subject was still eligible to participate in the study, they attended a second clinical meeting between 10 and 17 days before the randomization phase. […]
Within 5 minutes of the subject's mean habitual bedtime, study drug was administered and an overnight polysomnogram recording was initiated. At completion of the recording the following morning (Day 2), postural stability and cognitive performance were assessed. […] The next morning (Day 3), postural stability and cognitive performance were assessed. […]
On Day 29, subjects returned to the clinic. […] On the following morning (Day 30), postural stability and cognitive performance were assessed. […]
On the evening of Day 30, subjects returned to the clinic. […] The following morning (Day 31), postural stability and cognitive performance were assessed and a blood sample was obtained. […] An electrocardiogram was performed, and vital signs and weight were assessed. […]

SMILES: Cc1ncc(OC[C@@]2(c3cccc(F)c3)C[C@H]2C(=O)Nc2ccc(F)cn2)c(C)n1 [Lemborexant, (1R,2S)-2-(((2,4-dimethylpyrimidin-5-yl)oxy)methyl)-2-(3-fluorophenyl)-N-(5-fluoropyridin-2-yl)cyclopropanecarboxamide]
- Total Sleep Time, Change from Study Baseline, Median ([1]; Days 1/2, Lemborexant 5 mg): 59.50
- Total Sleep Time, Mean (SD) ([1]; Days 1/2, Lemborexant 5 mg): 393.22 (40.346)
- Total Sleep Time, Median ([1]; Days 1/2, Lemborexant 5 mg): 400.63
- Total Sleep Time, Change from Study Baseline, Mean (SD) ([1]; Days 1/2, Lemborexant 10 mg): 79.58 (47.350)
- Total Sleep Time, Change from Study Baseline, Median ([1]; Days 1/2, Lemborexant 10 mg): 74.25
- Total Sleep Time, Mean (SD) ([1]; Days 1/2, Lemborexant 10 mg): 404.65 (36.593)
- Total Sleep Time, Median ([1]; Days 1/2, Lemborexant 10 mg): 411.50
- Total Sleep Time, Change from Study Baseline, LSM treatment difference: Lemborexant-Zolpidem ([1]; Days 29/30, Lemborexant 5 mg): 19.41 (3.457)
- Total Sleep Time, Change from Study Baseline, Mean (SD) ([1]; Days 29/30, Lemborexant 5 mg): 61.99 (46.817)
- Total Sleep Time, Change from Study Baseline, Median ([1]; Days 29/30, Lemborexant 5 mg): 56.50
- Total Sleep Time, Mean (SD) ([1]; Days 29/30, Lemborexant 5 mg): 389.97 (42.437)
- Total Sleep Time, Median ([1]; Days 29/30, Lemborexant 5 mg): 399.63
- Total Sleep Time, Change from Study Baseline, LSM treatment difference: Lemborexant-Zolpidem ([1]; Days 29/30, Lemborexant 10 mg): 24.10 (3.456)
- Total Sleep Time, Change from Study Baseline, Mean (SD) ([1]; Days 29/30, Lemborexant 10 mg): 67.86 (52.117)
- Total Sleep Time, Change from Study Baseline, Median ([1]; Days 29/30, Lemborexant 10 mg): 65.13
- Total Sleep Time, Mean (SD) ([1]; Days 29/30, Lemborexant 10 mg): 393.16 (42.827)
- Total Sleep Time, Median ([1]; Days 29/30, Lemborexant 10 mg): 400.88
- mean total sleep time ([1]; all lemborexant treatment groups, relative to baseline, placebo and zolpidem treatment groups (Table 17)): increased
- safety and tolerability (incidence of adverse events) ([2]; Example 2 (Table 29)): safe and well-tolerated
- Congenital anomaly/birth defect ([2]; Lemborexant 5 mg (N = 266)): 0 n (%)
- Deaths ([2]; Lemborexant 5 mg (N = 266)): 0 n (%)
- Important medical events ([2]; Lemborexant 5 mg (N = 266)): 1 (0.3) n (%)
- Life threatening ([2]; Lemborexant 5 mg (N = 266)): 0 n (%)
- Other SAEs ([2]; Lemborexant 5 mg (N = 266)): 2 (0.8) n (%)
- Persistent or significant disability or incapacity ([2]; Lemborexant 5 mg (N = 266)): 0 n (%)
- Requires inpatient hospitalization or prolongation of existing hospitalization ([2]; Lemborexant 5 mg (N = 266)): 2 (0.8) n (%)
- Serious TEAEs ([2]; Lemborexant 5 mg (N = 266)): 2 (0.8) n (%)
- Severe TEAEs ([2]; Lemborexant 5 mg (N = 266)): 1 (0.4) n (%)
- TEAEs ([2]; Lemborexant 5 mg (N = 266)): 74 (27.8) n (%)
- TEAEs leading to study dose reduced ([2]; Lemborexant 5 mg (N = 266)): 0 n (%)
- TEAEs leading to study drug dose adjustment ([2]; Lemborexant 5 mg (N = 266)): 3 (1.1) n (%)
- TEAEs leading to study drug interrupted ([2]; Lemborexant 5 mg (N = 266)): 1 (0.4) n (%)
- TEAEs leading to study drug withdrawal ([2]; Lemborexant 5 mg (N = 266)): 2 (0.8) n (%)
- Treatment-related TEAEs ([2]; Lemborexant 5 mg (N = 266)): 30 (11.3) n (%)
- Congenital anomaly/birth defect ([2]; Lemborexant 10 mg (N = 268)): 0 n (%)
- Deaths ([2]; Lemborexant 10 mg (N = 268)): 0 n (%)
- Important medical events ([2]; Lemborexant 10 mg (N = 268)): 0 n (%)
- Life threatening ([2]; Lemborexant 10 mg (N = 268)): 0 n (%)
- Other SAEs ([2]; Lemborexant 10 mg (N = 268)): 0 n (%)
- Persistent or significant disability or incapacity ([2]; Lemborexant 10 mg (N = 268)): 0 n (%)
- Requires inpatient hospitalization or prolongation of existing hospitalization ([2]; Lemborexant 10 mg (N = 268)): 0 n (%)
- Serious TEAEs ([2]; Lemborexant 10 mg (N = 268)): 0 n (%)
- Severe TEAEs ([2]; Lemborexant 10 mg (N = 268)): 2 (0.7) n (%)
- TEAEs ([2]; Lemborexant 10 mg (N = 268)): 82 (30.6) n (%)
- TEAEs leading to study dose reduced ([2]; Lemborexant 10 mg (N = 268)): 0 n (%)
- TEAEs leading to study drug dose adjustment ([2]; Lemborexant 10 mg (N = 268)): 3 (1.1) n (%)
- TEAEs leading to study drug interrupted ([2]; Lemborexant 10 mg (N = 268)): 0 n (%)
- TEAEs leading to study drug withdrawal ([2]; Lemborexant 10 mg (N = 268)): 3 (1.1) n (%)
- Treatment-related TEAEs ([2]; Lemborexant 10 mg (N = 268)): 39 (14.6) n (%)
- cognitive tests compared with placebo [3]: neither dose of lemborexant differed from placebo
